Values quoted from earlier work, collected in patent publication US7468367B2, “Ethylene diamine derivatives and their use as orexin-receptor antagonists” (Smithkline Beecham p.l.c., priority 2001, dated 2008).

How the values were obtained:
freely-feeding rats = settings: central administration, 4 hour time period
orexin receptors = settings: central administration at the onset of the normal sleep period

For “orexin-A: peptide ligand and agonist of the orexin receptors; the human amino acid sequence is given in the 1st table (QPLPDCCRQKTCSCRLYELLHGAGNHAAGILTL; not fully specified; Orexin-A; UniProt O43612 34-66, looked up)”, the “increase in food intake over control rats receiving vehicle” value (freely-feeding rats) is given as “approximately four-fold” and the “arousal in rat sleep/EEG” value (orexin receptors) is given as “dose-related increase in arousal”.
